Assay results taken from patent US20250275976A1, “Methods of Treating Neuroinflammatory Conditions” (Athira Pharma, Inc., priority 2022, published 2025).
Where two headings read alike, the source gives them in different places. Square brackets hold non-standard residues; d marks the D form. Peptide text beside a SMILES is read from it. * marks the point of attachment. Hexanoyl = CCCCCC(=O)*; Ahx = NCCCCCC(=O)O

What was measured:
[1] = system: Prp-TDP43^A315T mice; type: in vivo
Method: Extranuclear accumulation of TDP-43 protein is a pathological hallmark of a number of neurological diseases. […] Male Prp-TDP43^A315T mice (N=10 mice per group) at 3 weeks of age were administered daily treatments of test compounds. Compound A19 was administered via subcutaneous injection, and Compound 5a and Compound 6a were administered via oral gavage. After 2 months of treatment, plasma samples were collected for cytokine quantification. […] Plasma IL-6 and TNF-α cytokine expression levels were determined using the ELISA method. The submandibular vein was punctured with a lancet and a blood drop was collected directly on a microtube containing EDTA as anticoagulant. Samples were centrifuged for 15 minutes at 1000×g at 4° C. within 20 minutes of collection. 20 μl of plasma supernatant was stored at −20° C. before ELISA analysis.
Plasma was diluted at 1:10 in sterile PBS, and IL-6 and TNF-α quantification was performed in duplicate for each animal using 10 μl of sample per well in 96-well plates using the ELISA method (IL-6: Signa-Aldrich Cat #RAB0308, TNF-α: Sigma-Aldrich Cat #RAB0477). Statistical analysis was carried out by 2-way ANOVA with Dunnett's multiple comparisons post-test with compound-treated samples compared to vehicle-treated samples.

[2] = system: dopaminergic (DA) neurons; assay: TH+ neuron number and neurite network after MPP+, rotenone or 6-OHDA injury; type: cell-based, rat (Wistar); design: key to Neurite Network (significance vs insult) / TH+ neuron number (significance vs insult): “NS” indicates that the comparison was not statistically significant; “+” indicates that p<0.05
From the text: A range of neurodegenerative disease states converge on neuroinflammatory dysfunction related to mitochondrial impairment and the generation of reactive oxygen species (ROS). Chemical disruption of mitochondrial function by treatment of neuron cultures with 1-methyl-4-phenylpyridium (MPP+) or the pesticide rotenone can lead to activation of inflammatory signaling pathways and death via apoptotic and necrotic mechanisms. Similarly, intracellular oxidation of 6-hydroxydopamine (6-OHDA), which is readily absorbed by dopaminergic neurons in culture, leads to production of ROS within the cell, activation of inflammatory signaling, and cell death. In vitro exposure to these neurotoxins has been successfully used to model the effects of neurodegenerative inflammation and identify therapeutic agents that can protect neurons from these effects.
Midbrain tissue obtained from 15-day old rat (Wistar) embryos was dissected and the ventral mesencephalic region, an area rich in dopaminergic (DA) neurons was removed and dissociated by trypsinization and mechanical passage. Cells were cultured in Neurobasal medium supplemented with B27 (2%), L-glutamine (2 mM), 2% of Penicillin-Streptomycin (PS) solution, 10 ng/mL of Brain-derived neurotrophic factor (BDNF) and 1 ng/mL of Glial-Derived Neurotrophic Factor (GDNF).
Viable cells were seeded at a density of 40,000 cells/well in 96-well plates and maintained at 37° C. in 5% CO2. […] Subsequently, chemical insults were added to the culture in separate plates as follows: 4 uM of MPP+ for 48 hours, 10 nM of rotenone for 24 hours, and 20 uM of 6-OHDA for 24 hours.
Following incubation, cell culture supernatant was replaced by a fixative solution of 4% paraformaldehyde in PBS for 20 minutes and prepared for immunostaining. Fixed cultures were stained with a monoclonal anti-Tyrosine Hydroxylase (TH) antibody (1:10000 in PBS, 2 hrs, RT) followed by incubation with appropriate fluorescent secondary antibody and Hoechst dye. Automated fluorescent imaging, 20 images per well, was performed at 10× magnification. Computation image analysis was used to quantify the total number of TH+ neurons, and the total length of the neurite network. Statistical analysis using a one-way ANOVA followed by Fishers LSD test compared inflammatory insult cultures with and without test compound treatment.

[3] = system: BV2 microglia; assay: pAKT in LPS-stimulated BV2 microglia (HTRF); type: cell-based; details: for Inflammatory Readout: pAKT (significance of reduction): LPS pre-treatment 45 minutes, compound 1 hour
From the text: Microglia are the resident immune cells of the brain and, when activated by pathological conditions, promote broad-spectrum neuroinflammation. When activated by toxic exogenous substances, microglia produce excessive reactive oxygen species (ROS), nitric oxide (NO), and proinflammatory cytokines, which further propagates disease pathogenesis. BV2 microglia were used as an in-vitro cell model to evaluate mechanisms relevant to inflammation in the CNS. Upon activation of TLR4 with LPS, microglia are activated and trigger excessive oxidative stress, a process that is partially mediated by AKT phosphorylation (pAKT) and activation. Microglia activation also leads to a range of changes in gene expression.
Compound A19 active metabolite (Compound A19-AM) was investigated for whether it could reduce the inflammatory effect of LPS in microglia. Inflammatory activation of BV2 microglia cells was stimulated by pre-treatment with LPS for 45 minutes, followed by the addition of test compound for 1 hour (pAKT) or 23.5 hours (NO and gene expression panel). For pAKT measurement, cells were lysed and the pAKT measurement was conducted using the HTRF system. For NO production, culture supernatants were collected and assessed for the presence of nitrite, a primary metabolic product of nitric oxide.
Quantification of nitrite production in cell culture supernatants was accomplished using the Griess Reagent System (Promega, G2930). Measurement of pAKT was assessed utilizing Phospho-AKT 1/2/3 (Ser473) […] Cellular Detection Kit (CisBio, 64AKSPEH).
Data analysis was performed via One-way ANOVA with Dunnett's multiple comparisons test compared to LPS-stimulated, vehicle treated cultures using Prism statistical software (GraphPad). Tabular data indicates significance of reduction in the indicated analyte at the indicated dose.

[4] = 2 months of treatment, doses as in the value
[5] = 6-OHDA injury (20 uM, 24 hrs), dose 0.01 nM
[6] = 6-OHDA injury (20 uM, 24 hrs), dose 0.1 nM
[7] = 6-OHDA injury (20 uM, 24 hrs), dose 1 nM
[8] = 6-OHDA injury (20 uM, 24 hrs), dose 10 nM
[9] = 6-OHDA injury (20 uM, 24 hrs), dose 100 nM
[10] = 6-OHDA injury (20 uM, 24 hrs), dose 1000 nM
[11] = MPP+ injury (4 uM, 48 hrs), dose 0.01 nM
[12] = MPP+ injury (4 uM, 48 hrs), dose 0.1 nM
[13] = MPP+ injury (4 uM, 48 hrs), dose 1 nM
[14] = MPP+ injury (4 uM, 48 hrs), dose 10 nM
[15] = MPP+ injury (4 uM, 48 hrs), dose 100 nM
[16] = MPP+ injury (4 uM, 48 hrs), dose 1000 nM
[17] = Rotenone injury (10 nM, 24 hrs), dose 0.01 nM
[18] = Rotenone injury (10 nM, 24 hrs), dose 0.1 nM
[19] = Rotenone injury (10 nM, 24 hrs), dose 1 nM
[20] = Rotenone injury (10 nM, 24 hrs), dose 10 nM
[21] = Rotenone injury (10 nM, 24 hrs), dose 100 nM
[22] = Rotenone injury (10 nM, 24 hrs), dose 1000 nM

CCC(C)CN1CC2N(Cc3ccc(C(F)(F)F)cc3)CCC(=O)N2[C@@H](C)C1=O (stereo partly drawn) [Compound 5a]
Significant decrease in plasma cytokine expression after 2 months of treatment: IL-6 ([1]; 2 mg/kg PO daily): ++++ (++++ = p < 0.0001) | Significant decrease in plasma cytokine expression after 2 months of treatment: TNF-α ([1]; 2 mg/kg PO daily): ++++ (++++ = p < 0.0001) | Significant decrease in plasma cytokine expression after 2 months of treatment: IL-6 ([1]; 10 mg/kg PO daily): ++++ (++++ = p < 0.0001) | Significant decrease in plasma cytokine expression after 2 months of treatment: TNF-α ([1]; 10 mg/kg PO daily): ++++ (++++ = p < 0.0001) | Significant decrease in plasma cytokine expression after 2 months of treatment: IL-6 ([1]; 20 mg/kg PO daily): ++++ (++++ = p < 0.0001) | Significant decrease in plasma cytokine expression after 2 months of treatment: TNF-α ([1]; 20 mg/kg PO daily): ++++ (++++ = p < 0.0001) | Plasma IL-6 expression (result in words) [1, 4]: significantly reduced both cytokine levels at doses of 2, 10, and 20 mg/kg | Plasma TNF-α expression (result in words) [1, 4]: significantly reduced both cytokine levels at doses of 2, 10, and 20 mg/kg

CCCCCC(=O)N[C@@H](Cc1ccc(O)cc1)C(=O)N[C@H](C(=O)NCCCCCC(N)=O)[C@@H](C)CC [Compound A19 active metabolite, dihexa] (Hexanoyl-Tyr-Ile-[Ahx]-NH2)
Neurite Network (significance vs insult) [2, 5]: NS | TH+ neuron number (significance vs insult) [2, 5]: NS | Neurite Network (significance vs insult) [2, 6]: NS | TH+ neuron number (significance vs insult) [2, 6]: NS | Neurite Network (significance vs insult) [2, 7]: NS | TH+ neuron number (significance vs insult) [2, 7]: + (“+” indicates that p<0.05) | Neurite Network (significance vs insult) [2, 8]: + (“+” indicates that p<0.05) | TH+ neuron number (significance vs insult) [2, 8]: + (“+” indicates that p<0.05) | Neurite Network (significance vs insult) [2, 9]: + (“+” indicates that p<0.05) | TH+ neuron number (significance vs insult) [2, 9]: + (“+” indicates that p<0.05) | Neurite Network (significance vs insult) [2, 10]: + (“+” indicates that p<0.05) | TH+ neuron number (significance vs insult) [2, 10]: + (“+” indicates that p<0.05) | Neurite Network (significance vs insult) [2, 11]: NS | TH+ neuron number (significance vs insult) [2, 11]: NS | Neurite Network (significance vs insult) [2, 12]: NS | TH+ neuron number (significance vs insult) [2, 12]: NS | Neurite Network (significance vs insult) [2, 13]: NS | TH+ neuron number (significance vs insult) [2, 13]: + (“+” indicates that p<0.05) | Neurite Network (significance vs insult) [2, 14]: NS | TH+ neuron number (significance vs insult) [2, 14]: + (“+” indicates that p<0.05) | Neurite Network (significance vs insult) [2, 15]: + (“+” indicates that p<0.05) | TH+ neuron number (significance vs insult) [2, 15]: + (“+” indicates that p<0.05) | Neurite Network (significance vs insult) [2, 16]: + (“+” indicates that p<0.05) | TH+ neuron number (significance vs insult) [2, 16]: + (“+” indicates that p<0.05) | Neurotoxic impact of inflammatory-relevant chemical insults (result in words) ([2]; MPP+, rotenone, 6-OHDA): reduces the neurotoxic impact of inflammatory-relevant chemical insults | Neurite Network (significance vs insult) [2, 17]: NS | TH+ neuron number (significance vs insult) [2, 17]: NS | Neurite Network (significance vs insult) [2, 18]: NS | TH+ neuron number (significance vs insult) [2, 18]: NS | Neurite Network (significance vs insult) [2, 19]: NS | TH+ neuron number (significance vs insult) [2, 19]: NS | Neurite Network (significance vs insult) [2, 20]: NS | TH+ neuron number (significance vs insult) [2, 20]: + (“+” indicates that p<0.05) | Neurite Network (significance vs insult) [2, 21]: + (“+” indicates that p<0.05) | TH+ neuron number (significance vs insult) [2, 21]: + (“+” indicates that p<0.05) | Neurite Network (significance vs insult) [2, 22]: + (“+” indicates that p<0.05) | TH+ neuron number (significance vs insult) [2, 22]: + (“+” indicates that p<0.05) | AKT phosphorylation (result in words) ([3]; LPS-stimulated BV2): significantly reduced | Inflammatory Readout: pAKT (significance of reduction) ([3]; dose 0.001 nM): ++ (“++” indicates a p value < 0.005 in Dunnett's multiple comparison) | Inflammatory Readout: pAKT (significance of reduction) ([3]; dose 1 nM): ++ (“++” indicates a p value < 0.005 in Dunnett's multiple comparison)
